What was measured:
[1] = molecular target: human growth hormone secretagogue receptor (hGHS-R1a) (Homo sapiens, UniProt Q92847); test: Competitive radioligand binding assay (ghrelin receptor), standard method A; conditions: binding activity at the human ghrelin receptor, standard method A
From the text: A competitive binding assay at the human growth hormone secretagogue receptor (hGHS-R1a) can be carried out analogously to assays described in the literature. (Bednarek, M. A.; et al. J. Med. Chem. 2000, 43, 4370-4376; Palucki, B. L.; et al. Bioorg. Med. Chem. Lett. […], 11, 1955-1957.) See also U.S. patent application Ser. Nos. 11/149,512 and 11/149,731. Binding activity at the gherlin receptor for representative compounds of the present invention is shown in the Examples below.

[2] = Pharmacokinetic analysis (oral bioavailability, elimination half-life) in the rat; assay type: in vivo; conditions: oral administration, 8 mg/kg dose, HPLC-MS
From the text: D. Pharmacokinetic Analysis of Representative Compounds of the Invention
The pharmacokinetic behavior of compound of the invention can be ascertained by methods well known to those skilled in the art. (Wilkinson, G. R. “Pharmacokinetics: The Dynamics of Drug Absorption, Distribution, and Elimination” in Goodman & Gilman's The Pharmacological Basis of Therapeutics, Tenth Edition, Hardman, J. G.; Limbird, L. E., Eds., McGraw Hill, Columbus, Ohio, 2001, Chapter 1.) The following method was used to investigate the pharmacokinetic parameters (elimination half-life, total plasma clearance, etc.) for intravenous, subcutaneous and oral administration of compounds of the present invention. See also U.S. patent application Ser. No. 11/149,512 and Ser. No. 11/149,731 and Intl. Pat. Appl. No. PCT/US2007/017905.
The table below presents oral bioavailability and elimination half-life data in the rat for representative compounds of the present invention. The parameters were determined by HPLC-MS after oral administration of an 8 mg/kg dose of the compound, except for compound 822 where a 2 mg/kg dose was used.

human plasma = test: Plasma protein binding, human plasma (equilibrium dialysis); assay type: in vitro ADME; conditions: test concentration 3 μg/mL
From the text: J. Plasma Protein Binding
The pharmacokinetic and pharmacodynamic properties of drugs are largely a function of the reversible binding of drugs to plasma or serum proteins such as albumin and α1-acid glycoprotein. In general, only unbound drug is available for diffusion or transport across cell membranes, and for interaction at the pharmacological target. On the other hand, drugs with low plasma protein binding generally have large volumes of distribution and rapid clearance since only unbound drug is available for glomerular filtration and, in some cases, hepatic clearance. Thus, the extent of plasma protein binding can influence efficacy, distribution and elimination. The ideal range for plasma protein binding is in the range of 87-98% for most drug products.
Protein binding studies were performed using human plasma. Briefly, 96-well microplates were used to incubate various concentrations of the test article for 60 min at 37° C. Bound and unbound fractions are separated by equilibrium dialysis, where the concentration remaining in the unbound fraction is quantified by LC-MS or LC-MS-MS analysis. […].
The table below presents protein binding data for representative compounds of the present invention in both human and rat plasma.

fasted rats = test: Gastric emptying in fasted rat model, standard method E; assay type: in vivo; conditions: average where repeated
Method: E. Gastric Emptying in Fasted Rat Model
To examine the effects of compounds of the invention in a model for gastroparesis, compounds were evaluated for possible effects on gastric emptying in fasted rats. This model is used to determine the potential of compounds of the invention to promote motility in fasted rats.
• 1. Overnight-fasted rats (male, Wistar, 200 g, n=5/group) were given a meal (2 mL) of methylcellulose (2%) by intragastric gavage. The meal was labeled with phenol red (0.05%). • 2. Test articles (dosed at various concentrations, typically 1, 3, 10, 30 mg/kg), vehicle and positive control (metoclopramide, a 5-HT ligand and prokinetic agent currently prescribed for the treatment of GI disorders, including gastroparesis) were administered by oral gavage immediately after the meal (time=0). • 3. […] Total phenol red remaining in the stomach was quantified by a colorimetric method at 560 nm. • 5. A 30% or more increase in gastric emptying (as compared to the vehicle control) was considered significant. • 6. One-way ANOVA, Dunnet's post-hoc statistical test was applied Results
The effects of representative compounds of the invention in the rat gastric emptying model described in standard method E are provided in the following table. In cases where an experiment was conducted multiple times, the average of the individual results is presented.

[3] = molecular target: GHS-R1a receptor (human ghrelin receptor) (Homo sapiens, UniProt Q92847); test: Aequorin functional assay (ghrelin receptor), standard method B; assay type: cell-based; conditions: functional activity at the human ghrelin receptor, standard method B (Aequorin)
GHS-R1a receptor (human ghrelin receptor), sequence (Q92847 whole entry): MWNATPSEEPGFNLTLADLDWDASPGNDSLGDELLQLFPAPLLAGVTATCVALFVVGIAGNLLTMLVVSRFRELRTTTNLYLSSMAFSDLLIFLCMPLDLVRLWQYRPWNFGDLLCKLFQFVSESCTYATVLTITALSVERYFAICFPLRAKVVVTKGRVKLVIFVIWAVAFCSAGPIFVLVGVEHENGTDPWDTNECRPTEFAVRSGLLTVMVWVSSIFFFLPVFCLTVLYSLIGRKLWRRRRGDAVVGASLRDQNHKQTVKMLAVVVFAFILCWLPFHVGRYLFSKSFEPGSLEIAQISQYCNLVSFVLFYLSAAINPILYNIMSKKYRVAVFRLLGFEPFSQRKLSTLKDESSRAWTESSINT
From the text: B. Aequorin Functional Assay (Ghrelin Receptor)
See also U.S. patent application Ser. Nos. 11/149,512 and 11/149,731. (LePoul, E.; et al. J. Biomol. Screen. 2002, 7, 57-65; Bednarek, M. A.; et al. J. Med. Chem. 2000, 43, 4370-4376; Palucki, B. L.; et al. Bioorg. Med. Chem. Lett. 2001, 11, 1955-1957.) Functional activity at the gherlin receptor for representative compounds of the present invention is presented in the Examples.

human growth hormone secretagogue receptor (hGHS-R1a), sequence (Q92847 whole entry): as above

SMILES	Ki [1] [nM]	Elimination Half-life (t1/2, rat, min) [2] [min]	Oral Bioavailability (rat, % F) [2] [% F]	also measured
CC1CNC(C2CCCCC2)C(=O)N(C)C(C)C(=O)NC(Cc2ccc(O)cc2)C(=O)NCCCC2CCCCC2O1 (mixture of isomers) [Compound 829]	≤ 1	45	8	Human Plasma Protein Binding (%) (human plasma): 91.6%; Percent Increase in Gastric Emptying After Oral Administration (fasted rats; dose 3 mg/kg): 28%
CC1CNC(C2CC2)C(=O)N(C)C(C)C(=O)NC(CC2CCCCC2)C(=O)NCCCC2CCCCC2O1 (mixture of isomers) [Compound 831]	≤ 1	120	15	Percent Increase in Gastric Emptying After Oral Administration (fasted rats; dose 3 mg/kg): 32%
CC(C)C[C@H]1NC(=O)[C@@H](C)N(C)C(=O)[C@H](C2CC2)NCCOc2c(F)cccc2CCCNC1=O [Compound 813]	≤ 10	31	4	Percent Increase in Gastric Emptying After Oral Administration (fasted rats; dose 3 mg/kg): 11%
C[C@@H]1C(=O)N[C@H](Cc2ccc(O)cc2)C(=O)NCCCc2ccc(F)c(F)c2OCCN[C@@H](C2CC2)C(=O)N1C [Compound 818]	≤ 10			Percent Increase in Gastric Emptying After Oral Administration (fasted rats; dose 3 mg/kg): 11%
C[C@@H]1CN[C@@H](C2CC2)C(=O)N(C)[C@H](C)C(=O)N[C@H](Cc2ccc(F)cc2)C(=O)NCCCc2ccc(F)cc2O1 [Compound 854]	≤ 100	223	22	
C[C@@H]1CN[C@@H](C2CC2)C(=O)N(C)[C@H](C)C(=O)N[C@H](Cc2ccc(Cl)cc2)C(=O)NCCCc2ccccc2O1 [Compound 862]	≤ 10	77	22	
C[C@@H]1CN[C@@H](C2CC2)C(=O)N(C)[C@H](C)C(=O)N[C@H](Cc2ccc(F)cc2)C(=O)NCCCc2cccc(F)c2O1 [Compound 935]	≤ 100	42	11	
C[C@@H]1CN[C@@H](C2CC2)C(=O)N(C)[C@H](C)C(=O)N[C@H](Cc2cccnc2)C(=O)NCCCc2ccccc2O1 [Compound 975]	≤ 100			EC50 [3]: > 400 nM
CC[C@H](C)[C@@H]1NC[C@@H](C)Oc2ccccc2CCCNC(=O)[C@@H](Cc2cccnc2)NC(=O)[C@@H](C)N(C)C1=O [Compound 976]	≤ 100			EC50 [3]: ≤ 400 nM
CC(C)C[C@H]1NC(=O)[C@@H](C)N(C)C(=O)[C@H](C2CC2)NC[C@@H](C)Oc2c(F)cccc2CCCNC1=O [Compound 979]	≤ 100	34	11	
C[C@@H]1CN[C@@H](C2CCCCC2)C(=O)N(C)[C@H](C)C(=O)N[C@H](Cc2ccc(F)cc2)C(=O)NCCCc2ccccc2O1 [Compound 982]	≤ 1			EC50 [3]: ≤ 50 nM
C[C@@H]1CN[C@@H](C2CC2)C(=O)N(C)[C@H](C)C(=O)N[C@H](Cc2ccc(O)cc2)C(=O)NCCCc2ccccc2O1 [Compound 989]	≤ 100	138	7	
CC(C)C[C@H]1NC(=O)[C@@H](C)N(C)C(=O)[C@H](C2CC2)NC[C@@H](C)Oc2cccnc2CCCNC1=O [Compound 999]		122	9	
C[C@@H]1C(=O)N[C@H](Cc2ccc(F)cc2)C(=O)NCCCc2cccc3c2O[C@H](CC3)CN[C@@H](C2CC2)C(=O)N1C [Compound 1009]	≤ 1			EC50 [3]: ≤ 50 nM
C[C@@H]1CN[C@@H](C2CC2)C(=O)N(C)[C@H](C)C(=O)N[C@H](Cc2ccc(F)cc2)C(=O)N[C@@H](C)CCc2ccccc2O1 [Compound 1011]	≤ 10	268	22	
C[C@@H]1CN[C@@H](C2CC2)C(=O)N(C)[C@H](C)C(=O)N[C@H]([C@H](C)c2ccc(F)cc2)C(=O)NCCCc2ccccc2O1 [Compound 1018]	≤ 100			EC50 [3]: ≤ 400 nM
C[C@@H]1CN[C@@H](C2CC2)C(=O)N(C)[C@H](C)C(=O)N[C@H](Cc2ccc(F)cc2)C(=O)NCCCc2ncccc2O1 [Compound 1027]	≤ 100	46	6	
C[C@@H]1CN[C@@H](C2CC2)C(=O)N(C)[C@H](C)C(=O)N[C@H](Cc2ccc(O)cc2)C(=O)N(C)CCCc2ccccc2O1 [Compound 1069]	≤ 100	128	32	
C[C@@H]1C(=O)N[C@H](Cc2ccc(O)cc2)C(=O)NCCCc2cccc3c2O[C@H](CC3)CN[C@@H](C2CCCCC2)C(=O)N1C [Compound 1105]	≤ 1			
CC(C)CC1NC(=O)C(C)N(C)C(=O)C(C2CC2)NCCOC2CCCCC2CCCNC1=O (stereo not shown) [Compound 1106]	≤ 100			
CC(C)CC1NC(=O)C(C)N(C)C(=O)C(C2CC2)NCC(C)OC2CCCCC2CCC(C)NC1=O (stereo not shown) [Compound 1107]	≤ 100			
CC1CNC(C2CCCCC2)C(=O)N(C)C(C)C(=O)NC(Cc2ccc(O)cc2)C(=O)NCCCc2ccccc2O1 (stereo not shown) [Compound 1108]	≤ 1			
CC1C(=O)NC(Cc2ccc(F)cc2)C(=O)NCCCc2c(F)cccc2OCCNC(C2CC2)C(=O)N1C (stereo not shown) [Compound 1109]	≤ 10			
CC1C(=O)NC(Cc2ccc(O)cc2)C(=O)NCCCc2c(F)cccc2OCCNC(C2CC2)C(=O)N1C (stereo not shown) [Compound 1110]	≤ 100			
CC(C)CC1NC(=O)C(C)N(C)C(=O)C(C2CC2)NCCOc2cccc(F)c2CCCNC1=O (stereo not shown) [Compound 1111]	≤ 100			
CC(C)CC1NC(=O)C(C)N(C)C(=O)C(C2CCCCC2)NCCOc2cc(F)ccc2CCCNC1=O (stereo not shown) [Compound 1112]	≤ 1			
CC1C(=O)NC(Cc2ccc(O)cc2)C(=O)NCCCc2ccc(F)cc2OCCNC(C2CCCCC2)C(=O)N1C (stereo not shown) [Compound 1113]	≤ 1			
CCN(CC)CCNC(=O)c1cc(Cl)c(N)cc1OC [metoclopramide]				Percent Increase in Gastric Emptying After Oral Administration (fasted rats; dose 30 mg/kg): 35%

Source: US10258602B2 (Ocera Therapeutics, Inc., priority 2007, dated 2019)
